Numbers after ± are expanded uncertainties.
Experiment: xn = mol fraction of the nth substance listed
Details: 92.3 kPa, Liquid; for viscosity: Concentric cylinders viscometry; for speed of sound: Frequency=3 MHz, Single path-length method; for mass density: Vibrating tube method

OCC(O)CO [glycerol] + O
Details	mass density, 293.15 K [kg/m3]	mass density, 298.15 K [kg/m3]	speed of sound, 293.15 K [m/s]	speed of sound, 298.15 K [m/s]	viscosity, 293.15 K [mPa·s]	viscosity, 298.15 K [mPa·s]
x1 = 0.011	1010.85 ± 3.2	1009.54 ± 3.2	1505.6 ± 1.8	1518.5 ± 1.8	–	–
x1 = 0.021	1021.71 ± 3.2	1020.28 ± 3.2	1526.4 ± 1.8	1538 ± 1.8	–	–
x1 = 0.0302	1031.17 ± 3.2	1029.64 ± 3.2	1544.8 ± 1.8	1555.4 ± 1.8	–	–
x1 = 0.0398	1040.58 ± 3.2	1038.94 ± 3.2	1563.4 ± 1.8	1572.8 ± 1.8	–	–
x1 = 0.0546	1054.09 ± 3.3	1052.3 ± 3.3	1590.1 ± 1.8	1598 ± 1.8	–	–
x1 = 0.0651	1062.84 ± 3.3	1060.94 ± 3.3	1608.2 ± 1.8	1615 ± 1.8	–	–
x1 = 0.0721	1068.61 ± 3.3	1066.65 ± 3.3	1619.8 ± 1.8	1625.8 ± 1.8	–	–
x1 = 0.0793	1073.97 ± 3.3	1071.95 ± 3.3	1630.9 ± 1.8	1636.2 ± 1.8	–	–
x1 = 0.0898	1081.8 ± 3.3	1079.69 ± 3.3	1646.9 ± 1.8	1651.3 ± 1.8	–	–
x1 = 0.0998	1088.82 ± 3.3	1086.64 ± 3.3	1661.3 ± 1.8	1664.9 ± 1.8	3.277 ± 0.46	2.631 ± 0.37
x1 = 0.1198	1101.67 ± 3.3	1099.36 ± 3.3	1687.5 ± 1.8	1689.5 ± 1.8	–	–
x1 = 0.1549	1121.66 ± 3.3	1119.16 ± 3.3	1727.7 ± 1.8	1727.3 ± 1.8	5.662 ± 0.79	4.416 ± 0.62
x1 = 0.2024	1143.7 ± 3.3	1141.01 ± 3.3	1770.2 ± 1.8	1767.4 ± 1.8	–	–
x1 = 0.2534	1162.81 ± 3.3	1159.99 ± 3.3	1804.7 ± 1.8	1800 ± 1.8	13.67 ± 1.9	10.4 ± 1.5
x1 = 0.2959	1176 ± 3.3	1173.1 ± 3.3	1826.9 ± 1.8	1821 ± 1.8	19.73 ± 2.8	14.91 ± 2.1
x1 = 0.3504	1190.05 ± 3.3	1187.09 ± 3.3	1846.7 ± 1.8	1841.6 ± 1.8	30.2 ± 4.2	22.91 ± 3.2
x1 = 0.4006	1200.88 ± 3.3	1197.86 ± 3.3	1863.9 ± 1.8	1856.1 ± 1.8	45.08 ± 6.3	33.73 ± 4.7
x1 = 0.4477	1209.47 ± 3.3	1206.42 ± 3.3	1874.9 ± 1.8	1866.5 ± 1.8	63.42 ± 8.9	46.86 ± 6.6
x1 = 0.4983	1217.48 ± 3.3	1214.4 ± 3.3	1884.4 ± 1.8	1875.4 ± 1.8	90.21 ± 13	65.72 ± 9.2
x1 = 0.5471	1224.33 ± 3.3	1221.23 ± 3.3	1891.7 ± 1.8	1882.4 ± 1.8	124.25 ± 17	89.21 ± 13
x1 = 0.6046	1231.03 ± 3.3	1227.93 ± 3.3	1898.3 ± 1.8	1888.6 ± 1.8	182.07 ± 26	126.31 ± 18
x1 = 0.6469	1235.49 ± 3.4	1232.4 ± 3.3	1902.4 ± 1.8	1892.3 ± 1.8	234.23 ± 33	163.54 ± 23
x1 = 0.7006	1240.52 ± 3.4	1237.44 ± 3.4	1906.8 ± 1.8	1896.3 ± 1.8	322.03 ± 46	220.14 ± 31
x1 = 0.7465	1244.44 ± 3.4	1241.37 ± 3.4	1910.2 ± 1.8	1899.4 ± 1.8	419.77 ± 60	283.91 ± 40
x1 = 0.7942	1248.13 ± 3.4	1245.06 ± 3.4	1913.5 ± 1.8	1902.3 ± 1.8	535.66 ± 77	358.24 ± 51
x1 = 0.8497	1251.95 ± 3.4	1248.81 ± 3.4	1916.8 ± 1.8	1905.2 ± 1.8	705.87 ± 100	463.79 ± 66
x1 = 0.8993	1254.99 ± 3.4	1251.84 ± 3.4	1919.1 ± 1.8	1907 ± 1.8	897.16 ± 130	584.38 ± 84
x1 = 0.9196	1256.26 ± 3.4	1253.1 ± 3.4	1920.6 ± 1.8	1908.2 ± 1.8	–	–
x1 = 0.9322	1256.97 ± 3.4	1253.82 ± 3.4	1921.3 ± 1.8	1908.7 ± 1.8	–	–
x1 = 0.9462	1257.78 ± 3.4	1254.68 ± 3.4	1922.1 ± 1.9	1909.8 ± 1.9	1125.1 ± 160	725.78 ± 110
x1 = 0.9562	1258.3 ± 3.4	1255.2 ± 3.4	1922.6 ± 1.9	1909.8 ± 1.9	–	–
x1 = 0.9855	1259.96 ± 3.4	1256.87 ± 3.4	1924.3 ± 1.9	1911 ± 1.9	–	–
x1 = 1	1260.73 ± 3	1257.65 ± 3	1925.5 ± 1.9	1911.9 ± 1.9	1408.4 ± 210	900.44 ± 130

Source: the NIST ThermoML archive (doi:10.1016/j.jct.2018.02.022)
